{"source": "paper PMC3726599", "about": "“A Metabolically-Stabilized Phosphonate Analog of Lysophosphatidic Acid Attenuates Collagen-Induced Arthritis” (PLoS ONE, 2013)", "key": {"[1]": {"biological_target": "T1, recombinant ATX (Homo sapiens, UniProt Q13822)", "T1 construct": "purchased SinoBiological Inc (main data); R&D (additional Km values)", "assay": "FS-3 ATX activity assay", "type": "biochemical", "method": "Inhibition of ATX activity by BrP-LPA was determined using the cleavage of the ATX-specific fluorogenic substrate FS-3 (Echelon Biosciences, UT, USA). Assays were conducted in a final volume of 100 μl in the presence of 140 mM NaCl, 5 mM KCl, 1 mM MgCl2 and 50 mM Tris, pH 8.0 with the use of 1 µM FS-3, 2 nM ATX from Echelon and increasing concentrations of BrP-LPA. Reactions were brought up to 100 µl with ddH2O and were then incubated at 37°C in a Tecan Infinite 200 microplate reader (Tecan Trading AG, Switzerland) set to make fluorescence measurements every 1 min for a total period of 30 min. Autotaxin activity was quantified by measuring the rate of increase in fluorescence at 528 nm with excitation at 485 nm. At the end of the measurement, each data point was plotted on a graph of fluorescence versus time. A linear regression was fitted in the linear portion of the graph (3–20 min).\nThe biochemistry of lyso-PLD was assessed by following the kinetics data using a wide panel of different ATX substrates [FS-3, different LPC species (14:0, 16:0, 18:0, 18:1)], three different recombinant ATX proteins (R&D, Sino-Biological and Echelon) and three different ATX activity assays (FS-3, TOOS, Amplex Red). The ATX activity was measured at different substrate concentrations (typically from 1-1000 μM) in order to examine whether ATX follows Michaelis-Menten kinetics. […] Km and Vmax were evaluated from the rectangular hyperbola curve with the use of GraphPad software.\nFor in vitro inhibition measurements, BrP-LPA was dissolved in water as a stock solution (4 mM) and appropriate dilutions were made in water. […] The in vitro inhibition of ATX by BrP-LPA was evaluated with three different assays (FS-3, Amplex Red, and TOOS). […]\nThe inhibition model (competitive, noncompetitive, or mixed type inhibition) was evaluated by graphical analysis with Lineweaver–Burk double reciprocal plots (1/[velocity] versus 1/[substrate]) and Cornish-Bowden plot ([substrate]/[velocity] versus [Inhibitor]). […]"}, "[2]": {"tested_on": "LPA3", "conditions": "Ca++ mobilization, RH7777 cells; kind of constant not given; read-out: inhibition of LPA3; cited from earlier work"}, "[3]": {"tested_on": "MDA-MB-231", "parameters": "method as in PMID 19509223", "conditions": "MDA-MB-231, in vitro; cited from earlier work"}, "[4]": {"tested_on": "lymphocyte trafficking", "parameters": "method as in PMID 23365076", "conditions": "cited from earlier work"}, "[5]": {"tested_on": "A549 cell", "parameters": "method as in PMID 20143443", "conditions": "A549, in vitro; cited from earlier work"}}, "data": [{"smiles": "CCCCCCCCCCCCCCCC(=O)OC[C@@H](O)CC(Br)P(=O)(O)O", "note": "(stereo partly drawn) [BrP-LPA, 1-bromo-3(S)-hydroxy-4-(palmitoyloxy)butyl-phosphonate]", "values": [{"measurement": "% Inhibition at 10 μΜ", "setting": "[1]; FS-3 1 μΜ, BrP-LPA 10 μΜ", "result": 95, "unit": "%"}, {"measurement": "IC50", "setting": "[1]; FS-3 assay, [S] 1 μΜ FS-3, Echelon ATX 2 nM, mean±std", "result": "400 ± 30", "unit": "nM"}, {"measurement": "Ki", "setting": "[1]; FS-3 substrate, Cheng-Prusoff from IC50", "result": "300 ± 100", "unit": "nM"}, {"measurement": "IC50", "setting": "[2]", "result": 1200, "unit": "nM"}, {"measurement": "breast cancer cell migration", "setting": "[3]", "result": "reduce breast cancer cell (MDA-MB-231) migration in vitro"}, {"measurement": "lymphocyte trafficking in draining lymph nodes", "setting": "[4]", "result": "reduce lymphocyte trafficking in draining lymph nodes"}, {"measurement": "cell migration and invasiveness", "setting": "[5]", "result": "inhibit cell migration and invasiveness"}]}]}
